# Results taken from patent US10227331B2 (priority 2015, dated 2019).
# Experiments:
# [1] = biological target: NDM-1 (Klebsiella pneumoniae, UniProt C7C422); assay: biochemical; assay type: biochemical; conditions: CCF2-FA substrate, 2 hours at 25° C; read-out: NDM-1 IC50
# In short: (§1)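 Fluorescence assay, CCF2-FA substrate (cephalosporin core linking 7-hydroxycoumarin to fluorescein); inhibitor + MBL + substrate, 2 h, 25° C. IC50 by 4-parameter fit, semi-log plot.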
# [2] = biological target: IMP-1 (Serratia marcescens, UniProt P52699); assay: biochemical; assay type: biochemical; conditions: CCF2-FA substrate, 2 hours at 25° C; read-out: IMP-1 IC50
# In short: as §1
# [3] = test system: P. aeruginosa expressing IMP-1, efflux− (MB9799); assay: Efflux: concentration of MBL inhibitor which restores susceptibility to imipenem; assay type: cell-based, Pseudomonas aeruginosa; conditions: imipenem at 2 μg/mL, in the presence of a class A, C, D serine β-lactamase inhibitor closely related to relebactam
# Source text: (§2) The strain background is Pseudomonas aeruginosa PAO1.
# [4] = biological target: VIM-1 (Pseudomonas aeruginosa (strain ATCC 15692 / DSM 22644 / CIP 104116 / JCM 14847 / LMG 12228 / 1C / PRS 101 / PAO1), UniProt A0A0F7KYQ8); assay: biochemical; conditions: CCF2-FA substrate, 2 hours at 25° C
# In short: as §1
# [5] = test system: Serratia marcescens expressing IMP-1 (CL5741); assay type: cell-based; conditions: with imipenem 1 μg/ml, 95% inhibition of bacterial growth; for Serratia marcescens MITC95: IMP-1 (CL5741)
# In short: (§3)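 Colonies from overnight 35 °C blood-agar cultures were suspended in saline, diluted 1:100 into 1.1× CAMHB and exposed to test compound with or without imipenem at 1 μg/ml. After 22–24 h at 35 °C, absorbance was read to find the concentration restoring imipenem susceptibility.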
# [6] = test system: Klebsiella pneumoniae expressing VIM-1 (IHMA599644); assay type: cell-based; conditions: with imipenem 1 μg/ml, 95% inhibition of bacterial growth; for Klebsiella pneumoniae MITC95: VIM-1 (IHMA599644)
# In short: as §3
# [7] = test system: Escherichia coli expressing NDM-1 (CLB30005, CLB30016); assay type: cell-based; conditions: with imipenem 1 μg/ml, 95% inhibition of bacterial growth; for Escherichia coli MITC95: NDM-1 (CLB30016)
# In short: as §3
# [8] = test system: P. aeruginosa expressing IMP-1, efflux+ (MB9798); assay type: cell-based, Pseudomonas aeruginosa; conditions: for P. aeruginosa expressing IMP-1, efflux+ (MB9798) MITC95: imipenem at 2 μg/mL, in the presence of a class A, C, D serine β-lactamase inhibitor closely related to relebactam; for Efflux ratio: ratio MITC95 PA_9798/MITC95 PA_9799
# Source text: as §2
# Sequence of NDM-1 (C7C422 whole entry, looked up, species assumed): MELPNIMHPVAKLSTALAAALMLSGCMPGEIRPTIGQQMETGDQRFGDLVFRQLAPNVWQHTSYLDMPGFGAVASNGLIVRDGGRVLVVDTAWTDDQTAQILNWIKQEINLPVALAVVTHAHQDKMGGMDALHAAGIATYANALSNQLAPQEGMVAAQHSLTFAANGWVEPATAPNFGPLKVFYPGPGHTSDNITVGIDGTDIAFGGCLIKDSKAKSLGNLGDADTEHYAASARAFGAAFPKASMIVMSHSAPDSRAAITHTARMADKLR
# Sequence of IMP-1 (P52699 whole entry, looked up, species assumed): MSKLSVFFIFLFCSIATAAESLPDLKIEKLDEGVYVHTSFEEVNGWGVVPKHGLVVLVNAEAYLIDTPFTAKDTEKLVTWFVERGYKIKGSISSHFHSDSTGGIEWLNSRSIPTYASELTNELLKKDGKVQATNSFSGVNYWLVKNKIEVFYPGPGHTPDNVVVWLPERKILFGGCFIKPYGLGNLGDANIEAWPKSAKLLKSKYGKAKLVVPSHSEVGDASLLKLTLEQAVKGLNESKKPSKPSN
Structure (SMILES),IC50 [1],IC50 [2],"P. aeruginosa expressing IMP-1, efflux− (MB9799) MITC95 [3]",IC50 [4],Serratia marcescens expressing IMP-1 (CL5741) MITC95 [5],Klebsiella pneumoniae expressing VIM-1 (IHMA599644) MITC95 [6],Escherichia coli expressing NDM-1 (CLB30016) MITC95 [7],"P. aeruginosa expressing IMP-1, efflux+ (MB9798) MITC95 [8]",Efflux ratio [8],Serratia marcescens MITC95 [5],Klebsiella pneumoniae MITC95 [6],Escherichia coli MITC95 [7]
"NCCS(=O)(=O)c1ccc(-c2cncc3ccccc23)c(-c2nnn[nH]2)c1S(N)(=O)=O.O=C(O)C(F)(F)F [Example 148, 2-((4-(isoquinolin-4-yl)-2-sulfamoyl-3-(1H-tetrazol-5-yl)phenyl)sulfonyl)ethanaminium 2,2,2-trifluoroacetate]",0.608 nM,0.983 nM,1.563 µM,0.434 nM,3.125 µM,3.125 µM,3.125 µM,3.125 µM,2.00,,,
"NCCS(=O)(=O)c1ccc(-c2ccc3c(c2)C(=O)NC3)c(-c2nnn[nH]2)c1S(N)(=O)=O.O=C(O)C(F)(F)F [Example 140, 2-((4-(3-oxoisoindolin-5-yl)-2-sulfamoyl-3-(1H-tetrazol-5-yl)phenyl)sulfonyl)ethanaminium 2,2,2-trifluoroacetate]",0.844 nM,0.488 nM,0.7813 µM,0.223 nM,1.563 µM,1.563 µM,1.563 µM,3.125 µM,4.00,,,
"NS(=O)(=O)c1c(S(=O)(=O)C2CNC2)ccc(-c2cccc3cn[nH]c23)c1-c1nnn[nH]1 [Example 297, 6-(azetidin-3-ylsulfonyl)-3-(1H-indazol-7-yl)-2-(1H-tetrazol-5-yl)benzenesulfonamide]",0.217 nM,0.596 nM,0.7813 µM,0.282 nM,,,,1.563 µM,2.00,1.563 µM,3.125 µM,1.563 µM
"NS(=O)(=O)c1c(S(=O)(=O)C2CNC2)ccc(-c2cnc3ccoc3c2)c1-c1nnn[nH]1.O=C(O)C(F)(F)F [Example 101, 3-((4-(furo[3,2-b]pyridin-6-yl)-2-sulfamoyl-3-(1H-tetrazol-5-yl)phenyl)sulfonyl)azetidin-1-ium 2,2,2-trifluoroacetate]",0.905 nM,1.48 nM,1.563 µM,0.399 nM,3.125 µM,6.25 µM,3.125 µM,12.5 µM,8.00,,,
"NCCS(=O)(=O)c1ccc(-c2cccn3ccnc23)c(-c2nnn[nH]2)c1S(N)(=O)=O [Example 64, 6-((2-Aminoethyl)sulfonyl)-3-(imidazo[1,2-a]pyridin-8-yl)-2-(1H-tetrazol-5-yl)benzenesulfonamide]",1.06 nM,0.359 nM,1.563 µM,0.339 nM,1.563 µM,3.125 µM,1.563 µM,1.563 µM,1.00,,,
"Nc1nc2c(-c3ccc(S(=O)(=O)C4CNC4)c(S(N)(=O)=O)c3-c3nn[nH]n3)cccc2o1 [Example 30, 3-(2-aminobenzo[d]oxazol-4-yl)-6-(azetidin-3-ylsulfonyl)-2-(2H-tetrazol-5-yl)benzenesulfonamide]",0.0846 nM,0.585 nM,1.563 µM,0.409 nM,1.563 µM,3.125 µM,0.7813 µM,1.563 µM,1.00,,,
"Cc1ccc(-c2ccc(S(=O)(=O)C3CNC3)c(S(N)(=O)=O)c2-c2nn[nH]n2)c2nc(N)sc12 [Example 32, 3-(2-amino-7-methylbenzo[d]thiazol-4-yl)-6-(azetidin-3-ylsulfonyl)-2-(2H-tetrazol-5-yl)benzenesulfonamide]",0.0331 nM,0.138 nM,0.7813 µM,0.106 nM,0.7813 µM,1.563 µM,0.3906 µM,1.563 µM,2.00,,,
"Nc1nc2c(-c3ccc(S(=O)(=O)[C@H]4CCNC4)c(S(N)(=O)=O)c3-c3nn[nH]n3)cccc2s1 [Example 184, 3-(2-aminobenzo[d]thiazol-4-yl)-6-((S)-pyrrolidin-3-ylsulfonyl)-2-(2H-tetrazol-5-yl)benzenesulfonamide]",0.0925 nM,0.243 nM,0.7813 µM,0.262 nM,0.7813 µM,1.563 µM,0.7813 µM,0.7813 µM,1.00,,,
"NCCNC(=O)c1cc(-c2ccc(S(=O)(=O)CCN)c(S(N)(=O)=O)c2-c2nn[nH]n2)cnc1N [compound 337, 2-amino-N-(2-aminoethyl)-5-(4-((2-aminoethyl)sulfonyl)-3-sulfamoyl-2-(2H-tetrazol-5-yl)phenyl)nicotinamide]",5.65 nM,12.3 nM,0.7813 µM,4.38 nM,,,,6.25 µM,8.00,1.563 µM,1.563 µM,0.7813 µM
"CC(=O)N1CCC(S(=O)(=O)c2ccc(-c3cccc4nc(N)[nH]c34)c(-c3nn[nH]n3)c2S(N)(=O)=O)CC1 [Example 44, 6-(1-acetylpiperidin-4-ylsulfonyl)-3-(2-amino-3H-benzo[d]imidazol-4-yl)-2-(2H-tetrazol-5-yl)benzenesulfonamide]",0.447 nM,1.98 nM,3.125 µM,0.299 nM,6.25 µM,25 µM,6.25 µM,100 µM,32.00,,,
"NC[C@@H](O)CS(=O)(=O)c1ccc(-c2cc(I)cc3[nH]c(N)nc23)c(-c2nn[nH]n2)c1S(N)(=O)=O [Example 379, (R)-6-((3-amino-2-hydroxypropyl)sulfonyl)-3-(2-amino-6-iodo-1H-benzo[d]imidazol-4-yl)-2-(2H-tetrazol-5-yl)benzenesulfonamide]",0.0809 nM,0.17 nM,0.7813 µM,0.123 nM,,,,0.3906 µM,0.50,0.7813 µM,1.563 µM,0.7813 µM
